Measurements taken from patent US10597398B2, “Suppression and regeneration promoting effect of low molecular weight compound on cancer and fibrosis” (NATIONAL UNIVERSITY CORPORATION TOTTORI UNIVERSITY, priority 2015, dated 2020).
Values belong to the compound of their own block, whether it stands above or below them.

Columns and labels:
Assay type in all cases: cell-based, human
[1] = system: Wnt/β-catenin signaling; assay: Inhibitory effect on Wnt/β-catenin signaling in mesenchymal stem cells (E7-TCF4 luciferase)
Protocol: A pTCF4-CMVpro-GL4.20 plasmid vector, having 3 copies of TCF4 motifs (CCT TTG ATC) upstream of aCMV promoter in a multiple cloning site of pGL4.20 (Promega Corp., Fitchburg, Wis.), was linearized and stably transfected into UE7T-13 cells to prepare E7-TCF4 cells. Also, a pCMVpro-GL4.20 plasmid vector, having a CMV promoter in a multiple cloning site of pGL4.20, was linearized and stably transfected into UE7T-13 cells. The resulting stable cells (E7-CMV cells) were cultured, like UE7T-13 cells, in 10% FBS/DMEM containing 0.25 μg/mL puromycin.
UE7T-13 cells were used to measure Wnt/β-catenin signaling activity. The concentrations of the respective compounds were as described in FIG. 42. Each control sample used was 0.1% DMSO, a solvent for each compound.
First, 70 to 90% confluent E7-TCF4 cells and E7-CMV cells were harvested and seeded (n=3) at 1.6758×10^4 cells/well of a 24-well plate (9.0×10^3 cells/cm^2). One day after that, each compound was added to the cells and the mixture was cultured at 37° C. Day 4 after the compound addition, the culture medium was changed.
At day 1, 4, or 8 after the compound treatment, the culture medium was discarded, and 100 μL of room temperature 5×Passive Lysis Buffer (PLB), which had been diluted 5-fold with MilliQ water, was added to each well. Next, the plate was shaken at room temperature for 15 min and was then frozen at −30° C. overnight. A Luciferase Assay Substrate was diluted with 10 mL of room temperature Luciferase Assay Buffer II to prepare Luciferase Assay Reagent II (LARII). The frozen PLB lysate samples were thawed and permeabilized for 15 min. Then, 10 μL aliquots were added to wells of a 96-well white plate. While 50 μL aliquots of LARII were each added to each well, luminescence was quantified by using a 1420 multi-label counter ARVO MX to determine firefly luciferase activity.

[2] = system: LX-2 cells; assay: Growth inhibitory effect on LX-2 cells; settings: 100 μM
[3] = system: cancer stem cells (CD44) in HuH-7 cells; assay: Inhibitory effect on cancer stem cells (FCM analysis of CD44), Example 2.4; settings: for inhibitory effect on cancer stem cells compared with IC-2: comparison with IC-2
Protocol: CD44, a cancer stem cell marker, was used as an indicator to examine an inhibitory effect of each compound on cancer stem cells. The concentrations of the respective compounds were as described in FIG. 32. Each control sample used was 0.1% DMSO, a solvent for each compound. In the figures, the “‡” indicates a significant difference of p<0.01.
First, 70 to 90% confluent HuH-7 cells were harvested and seeded at 1.5×10^6 cells per 10-cm cell culture dish. After 24 h, each compound was added to the cells and the mixture was cultured at 37° C. At 48 h after the compound treatment, the cells were harvested from each culture dish. The cells were centrifuged at 1000 rpm and at 4° C. for 3 min to remove a supernatant and were then washed twice with 1 mL of 0.5% FBS/2 mM EDTA/PBS. Next, the cells were suspended in 500 μL of 5% BSA/0.5% FBS/2 mM EDTA/PBS for blocking at 4° C. for 15 min. Then, 5 μL of a mouse anti-human CD44 monoclonal antibody (156-3C11, Cell Signaling Technology Inc., Danvers, Mass.) was added to 500 μL of the cell suspension. The mixture was resuspended and subjected to a primary antibody reaction in a dark room at 4° C. for 30 min. After that, the cells were washed 3 times with 1 mL of 0.5% FBS/2 mM EDTA/PBS. Subsequently, 100 μL of Alexa Fluor 488-labeled IgG (H+L) (ab150113, Abcam Ltd., Cambridge, UK), which had been diluted 200-fold with 5% BSA/0.5% FBS/2 mM EDTA/PBS, was added and the cells were suspended. Then, a secondary antibody reaction was carried out in a dark room at 4° C. for 30 min. After that, the cells were washed 3 times with 1 mL of 0.5% FBS/2 mM EDTA/PBS. Thereafter, the cells were suspended in 500 μL of 0.5% FBS/2 mM EDTA/PBS and were made to pass through a 40 μm-mesh column (Becton, Dickinson and Company, Franklin Lakes, N.J.). A Beckman Coulter-Moflo XDP (Beckman Coulter Inc., Fullerton, Calif.) was used for analysis. Following the analysis, further analysis was conducted by adding 2 μL of 0.25 mg/mL Propidium Iodide (PI). The same experiment was repeated four times.

[4] = system: Wnt/β-catenin signaling; assay: Inhibitory effect on Wnt/β-catenin signaling in liver cancer cells (HuH7-TCF4 luciferase); settings: concentration equal to or lower than that of IC-2
Protocol: A pTCF4-CMVpro-GL4.20 plasmid vector, which had been constructed by inserting 3 copies of TCF4 motifs (CCT TTG ATC) upstream of a CMV promoter into a multiple cloning site of pGL4.20 (Promega Corp., Fitchburg, Wis.), was linearized and stably transfected into the HuH-7 cells. The resulting stable cells (HuH7-TCF4 cells) and HuH-7 cells were likewise cultured.
While each compound was added at concentrations where the growth of HuH-7 cells was reduced to about 50% or less, Wnt/β-catenin signaling activity was measured. The concentrations of the respective compounds were as described in FIG. 40. Control samples used were 0.1% DMSO, a solvent for each compound, and 0.5 μM 5-FU.
First, 70 to 90% confluent HuH7-TCF4 cells were harvested and seeded (n=3) at 5.0×10^4 cells/well of a 24-well plate (TPP). After 24 h, each compound was added to the cells and the mixture was cultured at 37° C.
At 48 h after the compound treatment, the culture medium was discarded, and 100 μL of room temperature 5×Passive Lysis Buffer (PLB) (Promega Corp., Fitchburg, Wis.), which had been diluted 5-fold with MilliQ water, was added to each well. Next, the plate was shaken at room temperature for 15 min and was then frozen at −30° C. overnight. A Luciferase Assay Substrate was diluted with 10 mL of room temperature Luciferase Assay Buffer II to prepare Luciferase Assay Reagent II (LARII) (Promega). The frozen PLB lysate samples were thawed and permeabilized for 15 min. Then, 10 μL aliquots were added to wells of a 96-well white plate (Corning Inc., Corning, N.Y.). While 50 μL aliquots of LARII were each added to each well, luminescence was quantified by using a 1420 multi-label counter ARVO MX (PerkinElmer Singapore Pte Ltd., Singapore) to determine firefly luciferase activity. Note that a significant difference was evaluated by using (two-tailed) Student's t-test. The “*” in figures indicates a significant difference of p<0.05 between 0.1% DMSO and each compound; and the “**” indicates a significant difference of p<0.01 (the same applies to all the figures in Examples).

[5] = system: LX-2 cells; assay: Anti-fibrosis effect, summary statements on Example 3 (marker not specified); settings: concentration even lower than that of IC-2
Description: α-Smooth muscle actin (α-SMA), a fibrosis marker, was used as an indicator, and RNA was collected from LX-2 cells treated with each low-molecular-weight compound. Next, an inhibitory effect on fibrosis was examined by real-time RT-PCR.
In addition, instead of α-SMA, another fibrosis marker collagen, type I, alpha 1 (COL1A1) was used as an indicator, and substantially the same protocol was repeated. The concentrations of each compound used were as described in FIG. 34. Each control sample used was 0.1% DMSO, a solvent for each compound. Here, COL1A1 primers used were 5′-CCT CCA GGG CTC CAA CGA G-3′ and 5′-TCAATCACTGTCTTGCCCCA-3′. The annealing was performed at 58° C. for 5 sec. The measurement results were obtained by dividing the calculated value for the COL1A1 gene by the calculated value for the GAPDH gene.

[6] = system: HuH-7 cells; assay: Growth inhibitory effect on cancer cells (WST assay), Example 2.3; settings: for IC50: HuH-7 cells, WST assay, concentrations 0-50 μM, control 0.1% DMSO; for IC50 compared with IC-2: comparison with IC-2
Protocol: HuH-7 cells, a human liver cancer cell line, were cultured on 10-cm cell culture dishes (TPP Techno Plastic Products AG, Trasadingen, Switzerland) by using DMEM under conditions at 5% CO2, 37° C., and 100% humidity. When the cells were 70 to 90% confluent, 200 μL of 0.25% Trypsin/1 mM EDTA solution, which had been prepared by diluting the stock solution 10-fold with PBS (−), was added to detach the cells. Then, the cells were centrifuged at 1000 rpm for 3 min at room temperature. The cells recovered were subcultured at a 1:4 split ratio.
First, 70 to 90% confluent HuH-7 cells were harvested and seeded (n=3) at 5×10^3 cells/well of a 96-well plate (TPP). After 24 h, each compound was added to the cells and the mixture was cultured at 37° C. The concentrations of each compound were 0, 10, 20, 30, 40, and 50 μM. For IC-2-506-1, however, the concentrations used were 0, 10, 20, 25, 30, 40, and 50 μM. Each control sample (0 μM) used was 0.1% DMSO, a solvent for each compound.
Next, 0, 24, 48, and 96 h after the compound treatment, 100 μIL of DMEM-diluted 10% Cell Counting Kit-8 (DOJINDO LABORATORIES, Kumamoto) was added. The mixture was incubated at 37° C. for 60 min and its absorbance (at a measurement wavelength of 450 nm/control wavelength of 600 nm) was measured by using a Sunrise Rainbow RC (Tecan Group Ltd., Mannedorf, Switzerland). Absorbance for the cells alone was calculated by subtracting, from the reading obtained, absorbance for 10% Cell Counting Kit-8 alone.
The “*” in figures indicates a significant difference of p<0.05 between 0.1% DMSO and each compound; and the “**” indicates a significant difference of p<0.01 (the same applies to all the figures in Examples).

[7] = system: mesenchymal stem cell; assay: Hepatocyte differentiation-inducing effect, summary statements on Example 4 (readout not specified); settings: low concentration
Description: Albumin, a hepatocyte marker, was used as an indicator, and RNA was collected from cells treated with each compound. Next, a hepatocyte differentiation-inducing effect was examined by real-time RT-PCR. The concentrations of the respective compounds were as described in FIG. 35. Each control sample used was 0.1% DMSO, a solvent for each compound.
By using urea synthesis, a hepatocyte function, as an indicator, a hepatocyte differentiation-inducing effect of each compound was investigated.
The cells treated with each compound were subjected to immunofluorescence analysis of albumin, a hepatocyte marker, to investigate a hepatocyte differentiation-inducing effect. The concentrations of the respective compounds were as described in FIG. 37. Each control sample used was 0.1% DMSO, a solvent for each compound.
By using glycogen synthesis, a hepatocyte function, as an indicator, a hepatocyte differentiation-inducing effect of each compound was investigated.

Compound: O=C1C(Cc2ccccc2)N2C(=O)CCNC2CN1Cc1cccc2ccccc12 (stereo not shown) [Compound 9b]
inhibitory effect on Wnt/β-catenin signaling in mesenchymal stem cells ([1]; E7-TCF4 cells, day 8 after compound addition, compared with control 0.1% DMSO): all the compounds except for IC-2-Ar-OMe, 9b, and 7c-NT exhibited a significant inhibitory effect | growth inhibitory effect on LX-2 cells [2]: Neither 100 μM of 9b nor 9b-CONH2 exhibited a growth inhibitory effect

Compound: O=C1C(Cc2ccccc2)N2C(=O)CCN(C(=O)NCc3ccc(F)cc3)C2CN1Cc1cccc2ccccc12 (stereo not shown) [IC-2-F]
inhibitory effect on cancer stem cells compared with IC-2 [3]: more potent inhibitory effect on cancer stem cells than IC-2 | inhibitory effect on Wnt/β-catenin signaling pathway in liver cancer cells compared with IC-2 [4]: more potent inhibitory effect | anti-fibrosis effect compared with IC-2, lower concentration [5]: more potent anti-fibrosis effect | IC50 [6]: 22.2 µM | IC50 compared with IC-2 [6]: lower IC50 than IC-2 | hepatocyte-inducing effect at low concentration [7]: exerted a hepatocyte-inducing effect

Compound: NC(=O)N1CCC(=O)N2C(Cc3ccccc3)C(=O)N(Cc3cccc4ccccc34)CC12 (stereo not shown) [Compound 9b-CONH2]
growth inhibitory effect on LX-2 cells [2]: Neither 100 μM of 9b nor 9b-CONH2 exhibited a growth inhibitory effect

Further lines, with some results ahead:

IC50 [6]: 11.8 µM | IC50 compared with IC-2 [6]: lower IC50 than IC-2 | hepatocyte-inducing effect at low concentration [7]: exerted a hepatocyte-inducing effect
Compound: CC(C)(C)[Si](C)(C)Oc1ccc(CNC(=O)N2CCC(=O)N3C(Cc4ccccc4)C(=O)N(Cc4cccc5ccccc45)CC23)cc1 (stereo not shown) [IC-2-OTBS]
inhibitory effect on cancer stem cells at a concentration lower than that of IC-2 ([3]; concentration even lower than that of IC-2): exerted an inhibitory effect on cancer stem cells | anti-fibrosis effect compared with IC-2, lower concentration [5]: more potent anti-fibrosis effect | anti-tumor effect compared with IC-2 ([6]; at a concentration lower than that of IC-2): more potent anti-tumor effect

IC50 [6]: 28.1 µM
Compound: O=C1C(Cc2ccccc2)N2C(=O)CCN(C(=O)NCc3ccc([N+](=O)[O-])cc3)C2CN1Cc1cccc2ccccc12 (stereo not shown) [IC-2-NO2]
inhibitory effect on cancer stem cells compared with IC-2 [3]: more potent inhibitory effect on cancer stem cells than IC-2 | inhibitory effect on Wnt/β-catenin signaling pathway in liver cancer cells compared with IC-2 [4]: more potent inhibitory effect | inhibitory effect on Wnt/β-catenin signaling pathway in mesenchymal stem cells compared with IC-2 ([1]; concentration equal to or lower than that of IC-2): more potent inhibitory effect
